Drawing on US20260216355A1, “ANTIBODY-DRUG CONJUGATE FROM N-OXYCYCLOALKYL SUBSTITUTED CAMPTOTHECIN DERIVATIVE” (priority 2022, published 2026), this text covers IC50 for 15 substances.

Assay [1] deals with lung cancer cells NCI-H1975. Nature of the assay: In vitro inhibitory activity of ADC against tumor cell growth (CCK-8), NCI-H1975. To be noted: 6 days incubation. It is filed as cell-based, Human. The text has this:
(§1) Method for in vitro inhibitory activity assay of ADC: Human esophageal cancer cells OE-33, lung cancer cells NCI-H1975, and breast cancer cells MDA-MB-231 used for activity assays were respectively cultured in RPMI1640 (Cellmax), RPMI1640 (Cellmax), and DMEM (Cellmax) media containing 10% fetal bovine serum (FBS, Cellmax) to the exponential growth phase. After trypsinization, the cells were centrifuged, and the supernatant was discarded. The cells were resuspended with media and diluted to 3×10^4 cells/mL, 0.5×10^4 cells/mL and 1.5×10^4 cells/mL respectively. Then, 100 μL of each cell suspension was added to a 96-well cell culture plate, and the plate was returned to an incubator at 37° C. with 5% CO2 for overnight culture. The next day, the ADC to be tested was diluted to 2000 nM, 400 nM, 80 nM, 16 nM, 3.2 nM, 0.64 nM, 0.128 nM, and 0.026 nM using culture medium. The diluted ADC was added to a 96-well cell culture plate at 100 μL per well, with 3 replicates set for each concentration. For the negative control without ADC and the blank control, 100 μL of culture medium was added to each well. After the sample addition was finished, the plate was returned to the incubator at 37° C. with 5% CO2 for further incubation for 6 days. Upon completion of incubation, the cell culture plate was removed, and the medium in the plate was aspirated using a pipette. 100 μL of medium containing 10% CCK-8 was added to each well, followed by incubation at 37° C. for 3 h. After incubation, the plate was removed, protected from light, placed in a microplate reader, and the absorbance was measured at a test wavelength of 450 nm with a reference wavelength of 630 nm. Based on the absorbance values, the IC50 (Table 1) was calculated using four-parameter regression in GraphPad. The corresponding ADC drug containing Dxd was used as a positive control drug, which has the following structure: […]

Assay [2] concerns Human esophageal cancer cells OE-33. Briefly: In vitro inhibitory activity of ADC against tumor cell growth (CCK-8), OE-33. It is filed as cell-based. To be noted: OE-33 cells, 6 days incubation.
Description: as §1

Assay [3] deals with breast cancer cells MDA-MB-231. Briefly: In vitro inhibitory activity of ADC against tumor cell growth (CCK-8), MDA-MB-231. It is filed as cell-based, Human. To be noted: MDA-MB-231 cells, 6 days incubation.
Description: as §1

The term IC50 denotes the concentration needed to halve the response being measured. Read a low IC50 as greater potency. As for “7-(N-(HS627-Ac-PEG2-Gly-Lys-PABC), N-((R)-tetrahydrofuran-3-yl)amino)ethyl-10,11-methylenedioxycamptothecin [ADC 13]”, the IC50 in assay [1], in assay [2] and in assay [3] was 0.05 to 0.5 µM throughout.

Take “7-(N-(HS627-AcPEG2-Gly-Lys-PABC), N-(tetrahydropyran-4-yl)amino)ethyl-10,11-methylenedioxycamptothecin [ADC 5]”: the half-maximal inhibitory concentration (IC50) is 0.05 to 0.5 µM in assay [1], above 0.25 µM in assay [2] and 0.05 to 0.5 µM in assay [3].

“7-(N-(HS627-AcPEG4-Gly-Lys-PABC), N-(tetrahydropyran-4-yl)amino)ethyl-10,11-methylenedioxycamptothecin [ADC 7]”: the half-maximal inhibitory concentration (IC50) in assay [1] is 0.05 to 0.5 µM; in assay [2] it was above 0.25 µM; in assay [3] it was 0.05 to 0.5 µM.

Consider “7-(N-(HS627-mPEG2-Gly-Lys-PABC), N-(tetrahydropyran-4-yl)amino)ethyl-10,11-methylenedioxycamptothecin [ADC 3]”, for which the IC50 in assay [1], in assay [2] and in assay [3] was 0.005 to 0.05 µM throughout.

For the substance “7-(N-(HS627-mc-Val-Cit-PABC), N-(tetrahydropyran-4-yl)amino)ethyl-10,11-methylenedioxycamptothecin [ADC 1]”, the IC50 in assay [1] is 0.005 to 0.05 µM; in assay [2], 0.005 to 0.05 µM; in assay [3], 0.05 to 0.5 µM.

Regarding “7-(N-(IP140B-Ac-PEG2-Gly-Lys-PABC), N-((R)-tetrahydrofuran-3-yl)amino)ethyl-10,11-methylenedioxycamptothecin [ADC 14]”, the 50% inhibitory concentration (IC50) in assay [1], in assay [2] and in assay [3] was 0.005 to 0.05 µM throughout.

In the case of “7-(N-(IP140B-Ac-PEG2-Gly-Lys-PABC), N-((S)-tetrahydrofuran-3-yl)amino)ethyl-10,11-methylenedioxycamptothecin [ADC 16]”, the half-inhibitory concentration (IC50) in assay [1], in assay [2] and in assay [3] was 0.05 to 0.5 µM in each case.

For “7-(N-(IP140B-AcPEG2-Gly-Lys-PABC), N-(tetrahydropyran-4-yl)amino)ethyl-10,11-methylenedioxycamptothecin [ADC 6]”, the results for the IC50 in assay [1], in assay [2] and in assay [3] were 0.005 to 0.05 µM, 0.005 to 0.05 µM and 0.05 to 0.5 µM, respectively.

With “7-(N-(IP140B-AcPEG4-Gly-Lys-PABC), N-(tetrahydropyran-4-yl)amino)ethyl-10,11-methylenedioxycamptothecin [ADC 8]”, the IC50 in assay [1], in assay [2] and in assay [3] was 0.05 to 0.5 µM each time.

With “7-(N-(IP140B-Qx-PEG2-Gly-Lys-PABC), N-((R)-tetrahydrofuran-3-yl)amino)ethyl-10,11-methylenedioxycamptothecin [ADC 12]”, the 50% inhibitory concentration (IC50) is below 0.005 µM in assay [1], 0.005 to 0.05 µM in assay [2] and 0.005 to 0.05 µM in assay [3].

For “7-(N-(IP140B-Qx-PEG2-Gly-Lys-PABC), N-(tetrahydropyran-4-yl)amino)ethyl-10,11-methylenedioxycamptothecin [ADC 10]”, the half-inhibitory concentration (IC50) in assay [1] is below 0.005 µM; in assay [2], 0.005 to 0.05 µM; in assay [3], below 0.005 µM.

As for “7-(N-(IP140B-mPEG2-Gly-Lys-PABC), N-(tetrahydropyran-4-yl)amino)ethyl-10,11-methylenedioxycamptothecin [ADC 4]”, the IC50 in assay [1], in assay [2] and in assay [3] was 0.005 to 0.05 µM throughout.

For “7-(N-(IP140B-mc-Val-Cit-PABC), N-(tetrahydropyran-4-yl)amino)ethyl-10,11-methylenedioxycamptothecin [ADC 2]”, the IC50 in assay [1] was below 0.005 µM; in assay [2] it was 0.005 to 0.05 µM; in assay [3] it was 0.005 to 0.05 µM.

For “20-O-(IP140B-Ac-PEG4-daP-NHNHC)-7-(N-(tetrahydropyran-4-yl)amino)ethyl-10,11-methylenedioxycamptothecin [ADC 20]”, the half-maximal inhibitory concentration (IC50) in assay [1], in assay [2] and in assay [3] was below 0.005 µM in each case.

For “20-O-(IP140B-AcPEG2-Gly-Val-Ala-Gly-NHNHC)-7-(N-(tetrahydropyran-4-yl)amino)ethyl-10,11-methylenedioxycamptothecin [ADC 18]”, the IC50 in assay [1], in assay [2] and in assay [3] was below 0.005 µM in each case.
